Patent US11827628B2, “Compositions and methods for inhibition of the JAK pathway” (Rigel Pharmaceuticals, Inc., priority 2005, dated 2023)

Each compound was assayed on up-regulation of ICAM-1 (CD54) by IFNγ in A549 lung epithelial cells (assay: A549 Epithelial Line Stimulated with IFNγ (ICAM-1 surface expression, FACS)). Conditions: A549 cells stimulated with IFNγ, ICAM-1 expression by FACS; read-out: IC50, Example 43.
Format: cell-based, human
Procedure, shortened: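 ICAM-1 (CD54) flow cytometry on live-gated A549 cells, geometric mean versus dose giving EC50. Cells received IFNγ at 75 ng/mL for 24 h after a 1 h compound pre-treatment spanning 30 μM to 14 nM in medium with 5% FBS and 0.3% DMSO.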

With `Cc1ccc(Nc2ncc(F)c(Nc3ccc4c(c3)NC(=O)CS4)n2)cc1S(N)(=O)=O` [VII-45, N2-(3-Aminosulphonyl-4-methyl-phenyl)-5-fluoro-N4-(3-oxo-4H-benzo[1,4]thiazin-6-yl)-2,4-pyrimidinediamine] as the compound, how does the IC50 read?
Its IC50 is 4.03 µM.

For `C#CCOc1ccc(Nc2nc(Nc3ccc(C)c(S(=O)(=O)NC4CCN(C)CC4)c3)ncc2F)cc1` [VI-69, 5-Fluoro-N2-{[4-methyl-3-((1-methylpiperidin-4-yl)aminosulfonyl)]phenyl} N4-[4-(prop-2-ynyloxy)phenyl]-2,4-pyrimidinediamine], which IC50 is on record?
Its IC50 is 18.7 µM.

Which IC50 does the source give for `N#CCn1ccc2cc(Nc3nc(Nc4ccc(S(N)(=O)=O)cc4)ncc3F)ccc21` [IX-6, N2-(4-Aminosulfonylphenyl)-N4-(1-cyanomethyleneindol-5-yl)-5-fluoro-2,4-pyrimidinediamine] here?
Its IC50 is 36.8 µM.

Which IC50 does the source give for `Cc1ccc(Nc2ncc(F)c(Nc3ccc4c(ccn4CC#N)c3)n2)cc1S(N)(=O)=O` [IX-8, N2-(3-Aminosulfonyl-4-methylphenyl)-N4-(1-cyanomethyleneindol-5-yl)-5-fluoro-2,4-pyrimidinediamine] here?
The IC50 was 5.24 µM.

With `CS(=O)(=O)N1CCc2cc(Nc3nc(Nc4cccc(S(N)(=O)=O)c4)ncc3F)ccc21` [VII-60, N2-(3-Aminosulfonylphenyl)-5-fluoro-N4-[4-(1-methylsulfonyl)indolin-5-yl]-2,4-pyrimidinediamine] as the compound, how does the IC50 read?
The IC50 was 2.6 µM.

For `NC1CCOc2ccc(Nc3nc(Nc4cccc(S(N)(=O)=O)c4)ncc3F)cc21` (centres unmarked) [VII-28, N2-(3-Aminosulfonylphenyl)-N4-(chroman-4-amine-6-yl)-5-fluoro-2,4-pyrimidinediamine], which IC50 is on record?
Its IC50 is 16.6 µM.

How did the IC50 turn out when `CN1C(=O)CSc2ccc(Nc3nc(Nc4cccc(S(=O)(=O)N5CCCCC5)c4)ncc3F)cc21` [VII-50, 5-Fluoro-N4-(4-methyl-3-oxo-benz[1,4]thiazin-6-yl)-N2-(3-pipendinosulfonylphenyl)-2,4-pyrimidinediamine] was run?
The IC50 was 4.42 µM.

Same assay, conditions: A549 epithelial line stimulated with IFNγ; ICAM-1 expression by FACS; read-out: IC50, Example 43

How did the IC50 turn out when `N#CCOc1ccc(Nc2nc(Nc3cccc(S(N)(=O)=O)c3)ncc2Br)cc1` [Compound I-13, N2-(3-Aminosulfonylphenyl)-5-bromo-N4-(4-cyanomethyleneoxyphenyl)-2,4-pyrimidinediamine] was run?
The IC50 was 1.34 µM.

With `N#CCOc1ccc(Nc2nc(Nc3cccc(S(N)(=O)=O)c3)ncc2F)cc1F` [Compound I-12, N2-(3-Aminosulfonylphenyl)-5-fluoro-N4-(4-cyanomethyleneoxy-3-fluorophenyl)-2,4-pyrimidinediamine] as the compound, how does the IC50 read?
Its IC50 is 3.2 µM.

For “N2-(3-Aminosulfonyl-4-methylphenyl)-5-fluoro-N4-[4-(2-pyridinyl)-3-fluoromethyleneoxyphenyl]-2,4-pyrimidinediamine [Compound I-172]”, which IC50 is on record?
Its IC50 is 38.7 µM.

`Cc1ccc(Nc2ncc(F)c(Nc3ccc(OCC#N)c(F)c3)n2)cc1S(N)(=O)=O` [Compound I-11, N2-(3-Aminosulfonyl-4-methylphenyl)-5-fluoro-N4-(4-cyanomethyleneoxy-3-fluorophenyl)-2,4-pyrimidinediamine] was tested. Which IC50 did it give?
The IC50 was 17.6 µM.

How did the IC50 turn out when `Cc1ccc(Nc2nc(Nc3ccc(S(N)(=O)=O)cc3)ncc2F)cc1OCC(=O)N1CCOCC1` [Compound I-209, N2-(4-Aminosulfonylphenyl)-5-fluoro-N4-[4-methyl-3-(2-morpholinocarbonylmethyleneoxy)phenyl]-2,4-pyrimidinediamine] was run?
Its IC50 is 2.97 µM.

How did the IC50 turn out when `Cc1cc(Nc2nc(Nc3cccc(S(N)(=O)=O)c3)ncc2F)cc(C)c1OC(C)C(N)=O` (racemic) [Compound I-123, Racemic N4-[4-(1-Aminocarbonyl)ethoxy-3,5-dimethyl]phenyl-N2-(3-aminosulfonyl)phenyl-5-fluoro-2,4-pyrimidinediamine] was run?
The IC50 was 12.8 µM.

`Cc1ccc(Nc2ncc(F)c(Nc3ccc(OCc4ccncc4)cc3)n2)cc1S(N)(=O)=O` [Compound I-194, N2-(3-Aminosulfonyl-4-methylphenyl)-5-fluoro-N4-[4-(4-pyridinyl)methyleneoxyphenyl]-2,4-pyrimidinediamine] was tested. Which IC50 did it give?
Its IC50 is 5.03 µM.
